In patent publication US8889667B2 (Agios Pharmaceuticals, Inc, priority 2010, dated 2014) one finds AC50 data, which are given here for 13 molecules.

The structures appear in SMILES notation. A value given as a limit tells only on which side of the number the result lay.

The target in the experiment is PKM2 (Homo sapiens, UniProt P14618). Description: PKM2 Assay (activation, LDH-coupled, absorbance at 340 nm). Format: biochemical. Summed up:
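Human PKM2 (50 ng/well) was preincubated with compound and coupling mix for 30 min at 4 °C without ADP. Reactions were then started with ADP (0.7 mM) alongside PEP 0.15 mM, NADH 180 μM and LDH, in Tris pH 7.5/KCl/MgCl2/DTT/BSA buffer. A340 was followed at 25 °C and activation reported as AC50.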

Chain of PKM2 (P14618 whole entry): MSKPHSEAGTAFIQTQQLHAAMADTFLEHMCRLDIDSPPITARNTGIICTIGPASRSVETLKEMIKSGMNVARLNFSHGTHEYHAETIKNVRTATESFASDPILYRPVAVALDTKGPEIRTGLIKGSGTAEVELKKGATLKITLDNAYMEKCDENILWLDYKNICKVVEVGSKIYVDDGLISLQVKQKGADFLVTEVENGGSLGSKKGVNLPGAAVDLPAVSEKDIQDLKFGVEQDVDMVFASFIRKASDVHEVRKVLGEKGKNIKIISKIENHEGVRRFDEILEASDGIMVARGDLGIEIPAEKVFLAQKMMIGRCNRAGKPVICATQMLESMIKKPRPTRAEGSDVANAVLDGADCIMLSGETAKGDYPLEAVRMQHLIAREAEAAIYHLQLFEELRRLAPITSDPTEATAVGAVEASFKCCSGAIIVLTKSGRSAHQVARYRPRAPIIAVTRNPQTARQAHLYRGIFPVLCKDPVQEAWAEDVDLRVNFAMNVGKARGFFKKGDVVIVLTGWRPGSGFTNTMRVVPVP

The molecule `O=C(c1ccc(NS(=O)(=O)c2cccc3cccnc23)cc1)N1CCN(C(=O)c2ncc[nH]2)CC1` [Compound 354, N-(4-(4-(1H-imidazole-2-carbonyl)piperazine-1-carbonyl)phenyl)quinoline-8-sulfonamide] yielded an AC50 (Table 5) of less than 100 nM.
Same read-out and setting: next, `COc1cccc(OC)c1CN1CCN(C(=O)c2ccc(NS(=O)(=O)c3cccc4cccnc34)c(OC(F)(F)F)c2)CC1` [Compound 392, N-(4-(4-(2,6-dimethoxybenzyl)piperazine-1-carbonyl)-2-(trifluoromethoxy)phenyl)quinoline-8-sulfonamide]: 500 to 1000 nM; `O=C(c1ccc(NS(=O)(=O)c2cccc3cccnc23)cc1)N1CCN(C(=O)c2ccno2)CC1` [Compound 365, N-(4-(4-(isoxazole-5-carbonyl)piperazine-1-carbonyl)phenyl)quinoline-8-sulfonamide]: less than 100 nM.
On the same count and under the same terms, next, `O=C(c1ccc(NS(=O)(=O)c2cccc3cccnc23)c(OC(F)(F)F)c1)N1CCN(Cc2ccc(F)cc2)CC1` [Compound 337, N-(4-(4-(4-fluorobenzyl)piperazine-1-carbonyl)-2-(trifluoromethoxy)phenyl)quinoline-8-sulfonamide]: 1000 to 20000 nM.
`C[C@@H]1CN(Cc2ccc(F)cc2)CCN1C(=O)c1ccc(NS(=O)(=O)c2cccc3cccnc23)cc1` [Compound 131, (R)—N-(4-(4-(4-fluorobenzyl)-2-methylpiperazine-1-carbonyl)phenyl)quinoline-8-sulfonamide] had an AC50 (Table 4) of less than 100 nM.
`CC(c1cc(F)cc(F)c1)N1CCN(C(=O)c2ccc(NS(=O)(=O)c3cccc4cccnc34)cc2)CC1` (stereo not shown) [Compound 331, N-(4-(4-(1-(3,5-difluorophenyl)ethyl)piperazine-1-carbonyl)phenyl)quinoline-8-sulfonamide] yielded a concentration at half-maximal activity (AC50) (Table 5) of less than 100 nM.
Same read-out and setting: then `O=C(c1ccc(NS(=O)(=O)c2cccc3cccnc23)cc1)N1CCN(C(=O)C2CCOC2)CC1` (stereo not shown) [Compound 418, N-(4-(4-(tetrahydrofuran-3-carbonyl)piperazine-1-carbonyl)phenyl)quinoline-8-sulfonamide], with 100 to 500 nM.
For the setting “Table 4”, `C[C@H]1CN(C(=O)OCC2CC2)CCN1C(=O)c1ccc(NS(=O)(=O)c2cccc3cccnc23)cc1` [Compound 111, (S)-Cyclopropylmethyl3-methyl-4-(4-(quinoline-8-sulfonamido)benzoyl)piperazine-1-carboxylate] displayed an AC50 of less than 100 nM.
`O=C(c1ccc(NS(=O)(=O)c2cccc3cccnc23)cc1Cl)N1CCN(CC2CCCO2)CC1` (stereo not shown) [Compound 441, N-(3-chloro-4-(4-((tetrahydrofuran-2-yl)methyl)piperazine-1-carbonyl)phenyl)quinoline-8-sulfonamide] displayed an AC50 (Table 5) of 1000 to 20000 nM.
For the molecule `CC1CN(Cc2c(F)ccc(F)c2F)CC(C)N1C(=O)c1ccc(NS(=O)(=O)c2cccc3cccnc23)cc1` (stereo not shown) [Compound 199, N-(4-(2,6-dimethyl-4-(2,3,6-trifluorobenzyl)piperazine-1-carbonyl)phenyl)quinoline-8-sulfonamide], the concentration at half-maximal activity (AC50) (Table 4) is less than 100 nM.
Where the note is “Table 5”, `O=C(c1ccc(NS(=O)(=O)c2cccc3cccnc23)cc1F)N1CCN(CC2CCOCC2)CC1` [Compound 436, N-(3-fluoro-4-(4-((tetrahydro-2H-pyran-4-yl)methyl)piperazine-1-carbonyl)phenyl)quinoline-8-sulfonamide] gave a concentration at half-maximal activity (AC50) of less than 100 nM.
On the same count and under the same terms, next, `CC(c1c(F)ccc(F)c1F)N1CCN(C(=O)c2ccc(NS(=O)(=O)c3cccc4cccnc34)cc2)CC1` (stereo not shown) [Compound 404, N-(4-(4-(1-(2,3,6-trifluorophenyl)ethyl)piperazine-1-carbonyl)phenyl)quinoline-8-sulfonamide]: less than 100 nM; `COc1cc(C(=O)N2CCN(C(=O)c3csnn3)CC2)ccc1NS(=O)(=O)c1cccc2cccnc12` [Compound 321, N-(4-(4-(1,2,3-thiadiazole-4-carbonyl)piperazine-1-carbonyl)-2-methoxyphenyl)quinoline-8-sulfonamide]: 100 to 500 nM.
